Values of other authors in US20070104788A1, “Once-daily administration of central nervous system drugs” (priority 2005, published 2007).
Where two headings read alike, the source gives them in different places.

Details: for half life: background statement

COc1cccc([C@@]2(O)CCCC[C@H]2CN(C)C)c1 (racemic) [tramadol]
half life: 6.3 h | Half-Life Elimination (metabolite of tramadol): 7 h | Half-Life Elimination (parent drug): 5 to 6 h

COc1ccc2c3c1O[C@H]1C(=O)CC[C@@]4(O)[C@@H](C2)N(C)CC[C@]314 [oxycodone]
Half-Life Elimination (parent drug): 0.4 h

Cc1cc(C)cc(OCC2CNC(=O)O2)c1 (stereo not shown) [metaxolone]
Half-Life Elimination (after a meal): 2.4 ± 1.2 (after a meal) hours | Half-Life Elimination (fasting): 9.2 ± 4.8 (fasting) hours

CN(C)C[C@H]1CCCC[C@]1(O)c1cccc(O)c1 [Ml]
half life: 7.4 h
